Data reported in US10278971B2, “Fluorocyclopentenylcytosine methods of use” (Rexahn Pharmaceuticals, Inc., priority 2015, dated 2019).

Tests used:
[1] = system: overall methylation of DNA; assay: Overall methylation of DNA with antibody against 5-methyl-cytosine; assay type: cell-based, human; conditions: A549, 5 μM, 48 hr exposure
Procedure: (§1) DNMT1 protein expression was measured by Western Blotting after exposure to RX-3117 for 24 or 48 hr. DNMT1 RNA expression was measured by real-time PCR after 24 and 48 hr exposure to RX-3117. DNMT enzyme activity was measured in isolated nuclei after exposure 1 μM RX-3117 or 5 μM aza-CdR using a DNA methyltransferase assay kit provided by EpiGentek using the ability of a CpG dinding domain to bind to methylated DNA. In A549 cells the effect of 5 μM RX-3117 on overall methylation was measured with a specific antibody against 5-methyl-cytosine. Bands on Western blots were visualized using appropriate InfraRedDye using an Odyssey InfraRed imager.

Caki-1 = assay: Mice xenograft model, tumor growth inhibition; assay type: in vivo; conditions: Caki-1 xenograft, oral 500 mg/kg, TIWK
From the text: (§2) A novel, orally bioavailable nucleoside analogue, RX-3117, is a prodrug activated intracellularly by Uridine Cytidine Kinase 2 (UCK2) that is thought to be expressed predominantly in tumor tissue. RX-3117 is currently being evaluated in a Phase Ib/IIa multi-center, open-label clinical study in patients with advanced pancreatic and bladder cancer. In this study, the relation between UCK2 tissue protein expression and the efficacy of RX-3117 in mice xenograft models and also UCK2 protein expression in a panel of human cancer tissues relative to normal tissue were studied.
(§3) The immunoblotting protein level of UCK2 normalized to beta-actin and corresponding tumor growth inhibition (oral RX-3117 dose of 500 mg/kg, TIWK) were 57 and 67% in MiaPaCa2, 30 and −5% in BxPC3, 199 and 92% in Colo-205, 21 and 90% in Caki-1, 2 and 39% in A549, and 146 and 79% in H460, respectively. […] Average H-Scores of UCK2 in cancer tissues vs. normal tissues were 104 vs. 9 in lung, 97 vs. 20 in bladder, 67 vs. 41 in pancreas and 39 vs. 21 in colon, respectively.

BxPC3 = assay: Mice xenograft model, tumor growth inhibition; assay type: in vivo; conditions: oral 500 mg/kg, TIWK
From the text: as §2, §3

A549 = assay: Mice xenograft model, tumor growth inhibition; assay type: in vivo; conditions: oral 500 mg/kg, TIWK
From the text: as §2, §3

Colo-205 = assay: Mice xenograft model, tumor growth inhibition; assay type: in vivo; conditions: Colo-205 xenograft, oral 500 mg/kg, TIWK
From the text: as §2, §3

MiaPaCa2 = assay: Mice xenograft model, tumor growth inhibition; assay type: in vivo; conditions: oral 500 mg/kg, TIWK
From the text: as §2, §3

H460 = assay: Mice xenograft model, tumor growth inhibition; assay type: in vivo; conditions: oral 500 mg/kg, TIWK
From the text: as §2, §3

SW1573 = conditions: as reported in Peters et al. 2013; cited from earlier work
cytidine deaminase (CDA) = cytidine deaminase (CDA) (Homo sapiens, UniProt P32320); conditions: cited from earlier work
Sequence of cytidine deaminase (CDA) (P32320 whole entry, species assumed): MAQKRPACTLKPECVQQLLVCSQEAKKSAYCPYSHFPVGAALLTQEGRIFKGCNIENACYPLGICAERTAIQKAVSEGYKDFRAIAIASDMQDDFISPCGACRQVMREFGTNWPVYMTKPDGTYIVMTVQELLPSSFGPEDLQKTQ

MC38 murine colon cancer = assay: Syngeneic MC38 murine colon cancer model, tumor growth; assay type: in vivo
Procedure: Following the protocol described below, the effect of RX-3117 on tumor growth in a syngeneic model using female C57BL/6 mice with MC38 murine colon cancer was examined. Tumor growth was measured in a treatment group compared to a control (vehicle treated) group (see Table 1 below for dosing scheme and treatment regimen).
Briefly, the method is described as follows. The cells were harvested during exponential growth and re-suspended with phosphate buffered saline. Each test animal received a subcutaneous (s.c.) injection of 1×10^6 tumor cells into the right flank and tumor growth was monitored as the average tumor size approaches the target range of 60-100 mm^3. Dosing, based on Table 1 started as each animal reached this target range.
Tumors were measured in two dimensions using calipers, and volume calculated using the formula:
[…] The MTV (n), the median tumor volume for the number of animals, n, on Day 45, was determined for each group. Percent tumor growth inhibition (% TGI) is defined as the difference between the MTV of the designated control group (vehicle administration) and the MTV of the drug-treated group, expressed as a percentage of the MTV of the control group:
The data set for TGI analysis includes all animals in a group, except those that died due to treatment-related (TR) or non-treatment-related (NTR) causes. An agent that produces at least 60% TGI in this assay is considered to be potentially therapeutically active.
Treatment efficacy was determined from the number of regression responses. Treatment may cause partial regression (PR) or complete regression (CR) of the tumor in an animal. In a PR response, the tumor volume is 50% or less of its D1 volume for three consecutive measurements during the course of the study, and equal to or greater than 13.5 mm^3 for one or more of these three measurements. In a CR response, the tumor volume is less than 13.5 mm^3 for three consecutive measurements during the course of the study. Any animal with a CR response on the last day of the study was additionally classified as a tumor-free-survivor.
For toxicity assessments, animals were weighed daily for the first five days of the study and twice weekly thereafter. The mice were observed frequently for overt signs of any adverse, treatment-related side effects, and clinical signs of toxicity are recorded when observed.
Acceptable toxicity is defined as a group mean body-weight loss of less than 20% during the study and not more than one treatment-related (TR) death among ten treated animals. Any dosing regimen resulting in greater toxicity is considered above the maximum tolerated dose (MTD). […]

DNMT1 = assay: DNMT enzyme activity in isolated nuclei (DNA methyltransferase assay kit); assay type: cell-based, human; conditions: A2780 nuclear extracts, 1 μM, 24 hr
Procedure: as §1

[2] = Day 45, N=10 per group, same regimens

SMILES: Nc1ccn([C@@H]2C(F)=C(CO)[C@@H](O)[C@H]2O)c(=O)n1 [RX-3117, 4-amino-1-((1S,4R,5S)-2-fluoro-4,5-dihydroxy-3-hydroxymethyl-cyclopent-2-enyl)-1H-pyrimidin-2-one]
- decrease of overall methylation of DNA [1]: 25%
- tumor growth inhibition (Caki-1): 90%
- tumor growth inhibition (BxPC3): −5%
- tumor growth inhibition (A549): 39%
- tumor growth inhibition (Colo-205): 92%
- tumor growth inhibition (MiaPaCa2): 67%
- tumor growth inhibition (H460): 79%
- IC50 (SW1573): 13.7 µM
- substrate for cytidine deaminase (CDA) (cytidine deaminase (CDA); Peters et al. 2013): poor substrate
- rate of deamination (cytidine deaminase (CDA); compared with gemcitabine): much slower than gemcitabine
- CR: No. of Complete Regressions (MC38 murine colon cancer; [2]): 0
- PR: No. of Partial Regressions (MC38 murine colon cancer; [2]): 0
- TFS: No. of Tumor Free Survivors (MC38 murine colon cancer; [2]): 0
- TGI Day 28 (tumor growth inhibition) (MC38 murine colon cancer; female C57BL/6 mice, MC38 s.c., RX-3117 60 mg/kg po (5/2) x 3, anti-PD-1 RMP1-14 100 μg/animal ip biwk x 2, 60 mg/kg): 80%
- inhibition of DNMT1 activity (DNMT1): 32%
